Assay results taken from PubChem BioAssay (NCI).
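Protocol summary: plate cells (96-well), add compound at 5 concentrations, incubate 48 h, interpolate endpoints linearly. At the TGI there is no net growth.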

Key:
Experiment in all cases: NCI tumour cell line growth inhibition, 48 h
HCT-116 colon = system: HCT-116 colon
DLD-1 colon = system: DLD-1 colon
XF 498 CNS = system: XF 498 CNS
SF-295 CNS = system: SF-295 CNS
EKVX NSCLC = system: EKVX NSCLC
SN12C renal = system: SN12C renal
OVCAR-4 ovarian = system: OVCAR-4 ovarian
SR leukemia = system: SR leukemia
HT29 colon = system: HT29 colon
A549 NSCLC = system: A549 NSCLC
786-0 renal = system: 786-0 renal
MOLT-4 leukemia = system: MOLT-4 leukemia
HCC-2998 colon = system: HCC-2998 colon
NCI-H226 lung = system: NCI-H226 lung
RXF-631 renal = system: RXF-631 renal
NCI-H23 lung = system: NCI-H23 lung
HL-60(TB) leukemia = system: HL-60(TB) leukemia
HOP-92 NSCLC = system: HOP-92 NSCLC
UACC-257 melanoma = system: UACC-257 melanoma
SK-MEL-2 melanoma = system: SK-MEL-2 melanoma
A498 renal = system: A498 renal
COLO 205 colon = system: COLO 205 colon
SF-268 CNS = system: SF-268 CNS
HOP-62 NSCLC = system: HOP-62 NSCLC
UO-31 renal = system: UO-31 renal
RXF 393 renal = system: RXF 393 renal
ACHN renal = system: ACHN renal
MALME-3M melanoma = system: MALME-3M melanoma
OVCAR-5 ovarian = system: OVCAR-5 ovarian
NCI-H460 lung = system: NCI-H460 lung
TK-10 renal = system: TK-10 renal
IGROV1 ovarian = system: IGROV1 ovarian
SNB-75 CNS = system: SNB-75 CNS
CAKI-1 renal = system: CAKI-1 renal
DMS 114 small cell lung = system: DMS 114 small cell lung
UACC-62 melanoma = system: UACC-62 melanoma
SK-MEL-5 melanoma = system: SK-MEL-5 melanoma
K-562 leukemia = system: K-562 leukemia
M14 melanoma = system: M14 melanoma
DMS 273 small cell lung = system: DMS 273 small cell lung
SW-620 colon = system: SW-620 colon
M19-MEL melanoma = system: M19-MEL melanoma
SK-MEL-28 melanoma = system: SK-MEL-28 melanoma
HCT-15 colon = system: HCT-15 colon
U251 CNS = system: U251 CNS
LXFL 529 NSCLC = system: LXFL 529 NSCLC
SNB-19 CNS = system: SNB-19 CNS
CCRF-CEM leukemia = system: CCRF-CEM leukemia
SK-OV-3 ovarian = system: SK-OV-3 ovarian
SF-539 CNS = system: SF-539 CNS
OVCAR-8 ovarian = system: OVCAR-8 ovarian
HOP-18 NSCLC = system: HOP-18 NSCLC
SNB-78 CNS = system: SNB-78 CNS
KM20L2 colon = system: KM20L2 colon
NCI-H522 lung = system: NCI-H522 lung
LOX IMVI melanoma = system: LOX IMVI melanoma
OVCAR-3 ovarian = system: OVCAR-3 ovarian
KM12 colon = system: KM12 colon
RPMI-8226 leukemia = system: RPMI-8226 leukemia

Compound: NNC(=S)N/N=C(\CC1OC(=O)c2ccccc21)c1ccccc1O (stereo not drawn)
- TGI (HCT-116 colon): > 100 µM
- TGI (DLD-1 colon): > 100 µM
- TGI (XF 498 CNS): > 100 µM
- TGI (SF-295 CNS): 40.4 µM
- TGI (EKVX NSCLC): > 100 µM
- TGI (SN12C renal): > 100 µM
- TGI (OVCAR-4 ovarian): > 100 µM
- TGI (SR leukemia): 46.4 µM
- TGI (HT29 colon): > 100 µM
- TGI (A549 NSCLC): > 100 µM
- TGI (786-0 renal): > 100 µM
- TGI (MOLT-4 leukemia): 75.6 µM
- TGI (HCC-2998 colon): > 100 µM
- TGI (NCI-H226 lung): 95.4 µM
- TGI (RXF-631 renal): > 100 µM
- TGI (NCI-H23 lung): > 100 µM
- TGI (HL-60(TB) leukemia): > 100 µM
- TGI (HOP-92 NSCLC): > 100 µM
- TGI (UACC-257 melanoma): > 100 µM
- TGI (SK-MEL-2 melanoma): > 100 µM
- TGI (A498 renal): 95.4 µM
- TGI (COLO 205 colon): > 100 µM
- TGI (SF-268 CNS): > 100 µM
- TGI (HOP-62 NSCLC): > 100 µM
- TGI (UO-31 renal): > 100 µM
- TGI (RXF 393 renal): 77.3 µM
- TGI (ACHN renal): > 100 µM
- TGI (MALME-3M melanoma): > 100 µM
- TGI (OVCAR-5 ovarian): 33.9 µM
- TGI (NCI-H460 lung): > 100 µM
- TGI (TK-10 renal): > 100 µM
- TGI (IGROV1 ovarian): > 100 µM
- TGI (SNB-75 CNS): 86.1 µM
- TGI (CAKI-1 renal): > 100 µM
- TGI (DMS 114 small cell lung): > 100 µM
- TGI (UACC-62 melanoma): > 100 µM
- TGI (SK-MEL-5 melanoma): > 100 µM
- TGI (K-562 leukemia): > 100 µM
- TGI (M14 melanoma): > 100 µM
- TGI (DMS 273 small cell lung): > 100 µM
- TGI (SW-620 colon): > 100 µM
- TGI (M19-MEL melanoma): > 100 µM
- TGI (SK-MEL-28 melanoma): > 100 µM
- TGI (HCT-15 colon): > 100 µM
- TGI (U251 CNS): 56.2 µM
- TGI (LXFL 529 NSCLC): > 100 µM
- TGI (SNB-19 CNS): > 100 µM
- TGI (CCRF-CEM leukemia): > 100 µM
- TGI (SK-OV-3 ovarian): > 100 µM
- TGI (SF-539 CNS): 43.7 µM
- TGI (OVCAR-8 ovarian): > 100 µM
- TGI (HOP-18 NSCLC): > 100 µM
- TGI (SNB-78 CNS): > 100 µM
- TGI (KM20L2 colon): > 100 µM
- TGI (NCI-H522 lung): 83.8 µM
- TGI (LOX IMVI melanoma): 32.6 µM
- TGI (OVCAR-3 ovarian): > 100 µM
- TGI (KM12 colon): > 100 µM

Compound: COC(=O)C1=C(O)c2cc(OC)c(OC)cc2C(c2ccc(OC)c(OC)c2)C1 (stereo not drawn)
- TGI (HCT-116 colon): > 100 µM
- TGI (DLD-1 colon): > 100 µM
- TGI (XF 498 CNS): > 100 µM
- TGI (SF-295 CNS): > 100 µM
- TGI (EKVX NSCLC): > 100 µM
- TGI (SN12C renal): > 100 µM
- TGI (OVCAR-4 ovarian): > 100 µM
- TGI (SR leukemia): > 100 µM
- TGI (HT29 colon): > 100 µM
- TGI (A549 NSCLC): > 100 µM
- TGI (786-0 renal): > 100 µM
- TGI (MOLT-4 leukemia): > 100 µM
- TGI (HCC-2998 colon): > 100 µM
- TGI (NCI-H226 lung): > 100 µM
- TGI (RXF-631 renal): > 100 µM
- TGI (NCI-H23 lung): > 100 µM
- TGI (HL-60(TB) leukemia): > 100 µM
- TGI (HOP-92 NSCLC): > 100 µM
- TGI (UACC-257 melanoma): > 100 µM
- TGI (SK-MEL-2 melanoma): > 100 µM
- TGI (A498 renal): 98.2 µM
- TGI (COLO 205 colon): > 100 µM
- TGI (RPMI-8226 leukemia): > 100 µM
- TGI (SF-268 CNS): > 100 µM
- TGI (HOP-62 NSCLC): > 100 µM
- TGI (UO-31 renal): > 100 µM
- TGI (RXF 393 renal): > 100 µM
- TGI (ACHN renal): > 100 µM
- TGI (MALME-3M melanoma): > 100 µM
- TGI (OVCAR-5 ovarian): > 100 µM
- TGI (NCI-H460 lung): > 100 µM
- TGI (TK-10 renal): > 100 µM
- TGI (IGROV1 ovarian): > 100 µM
- TGI (SNB-75 CNS): > 100 µM
- TGI (CAKI-1 renal): > 100 µM
- TGI (DMS 114 small cell lung): > 100 µM
- TGI (UACC-62 melanoma): > 100 µM
- TGI (SK-MEL-5 melanoma): > 100 µM
- TGI (K-562 leukemia): > 100 µM
- TGI (M14 melanoma): > 100 µM
- TGI (DMS 273 small cell lung): > 100 µM
- TGI (SW-620 colon): > 100 µM
- TGI (M19-MEL melanoma): > 100 µM
- TGI (SK-MEL-28 melanoma): > 100 µM
- TGI (HCT-15 colon): > 100 µM
- TGI (U251 CNS): > 100 µM
- TGI (LXFL 529 NSCLC): > 100 µM
- TGI (CCRF-CEM leukemia): > 100 µM
- TGI (SK-OV-3 ovarian): > 100 µM
- TGI (SF-539 CNS): > 100 µM
- TGI (OVCAR-8 ovarian): > 100 µM
- TGI (HOP-18 NSCLC): > 100 µM
- TGI (SNB-78 CNS): > 100 µM
- TGI (KM20L2 colon): > 100 µM
- TGI (LOX IMVI melanoma): > 100 µM
- TGI (OVCAR-3 ovarian): > 100 µM
- TGI (KM12 colon): > 100 µM

Compound: Cc1ccc(Cc2c(=O)[nH]nc3ccccc23)cc1
- TGI (HCT-116 colon): > 100 µM
- TGI (DLD-1 colon): > 100 µM
- TGI (XF 498 CNS): > 100 µM
- TGI (SF-295 CNS): > 100 µM
- TGI (EKVX NSCLC): > 100 µM
- TGI (SN12C renal): > 100 µM
- TGI (OVCAR-4 ovarian): > 100 µM
- TGI (HT29 colon): > 100 µM
- TGI (A549 NSCLC): > 100 µM
- TGI (786-0 renal): > 100 µM
- TGI (MOLT-4 leukemia): > 100 µM
- TGI (HCC-2998 colon): > 100 µM
- TGI (NCI-H226 lung): > 100 µM
- TGI (RXF-631 renal): > 100 µM
- TGI (NCI-H23 lung): > 100 µM
- TGI (HOP-92 NSCLC): > 100 µM
- TGI (UACC-257 melanoma): > 100 µM
- TGI (SK-MEL-2 melanoma): > 100 µM
- TGI (A498 renal): > 100 µM
- TGI (COLO 205 colon): > 100 µM
- TGI (RPMI-8226 leukemia): > 100 µM
- TGI (SF-268 CNS): > 100 µM
- TGI (HOP-62 NSCLC): > 100 µM
- TGI (UO-31 renal): > 100 µM
- TGI (ACHN renal): > 100 µM
- TGI (MALME-3M melanoma): > 100 µM
- TGI (OVCAR-5 ovarian): > 100 µM
- TGI (NCI-H460 lung): > 100 µM
- TGI (TK-10 renal): > 100 µM
- TGI (IGROV1 ovarian): > 100 µM
- TGI (SNB-75 CNS): > 100 µM
- TGI (CAKI-1 renal): > 100 µM
- TGI (DMS 114 small cell lung): > 100 µM
- TGI (UACC-62 melanoma): > 100 µM
- TGI (SK-MEL-5 melanoma): > 100 µM
- TGI (K-562 leukemia): > 100 µM
- TGI (M14 melanoma): > 100 µM
- TGI (DMS 273 small cell lung): > 100 µM
- TGI (SW-620 colon): > 100 µM
- TGI (M19-MEL melanoma): > 100 µM
- TGI (SK-MEL-28 melanoma): > 100 µM
- TGI (HCT-15 colon): > 100 µM
- TGI (SNB-19 CNS): > 100 µM
- TGI (CCRF-CEM leukemia): > 100 µM
- TGI (SK-OV-3 ovarian): > 100 µM
- TGI (SF-539 CNS): > 100 µM
- TGI (OVCAR-8 ovarian): > 100 µM
- TGI (HOP-18 NSCLC): > 100 µM
- TGI (SNB-78 CNS): > 100 µM
- TGI (KM20L2 colon): > 100 µM
- TGI (LOX IMVI melanoma): > 100 µM
- TGI (OVCAR-3 ovarian): > 100 µM
- TGI (KM12 colon): > 100 µM
